The results in this text go back to paper PMC7186840, “Chemical‐Shift Perturbations Reflect Bile Acid Binding to Norovirus Coat Protein: Recognition Comes in Different Flavors” (Chembiochem, 2019).

Assay [1] concerns the target T1, GII.4 Saga VLPs (Norovirus Hu/GII-4/Saga4/2006/JP, UniProt B5BTR7).
T1 construct: virus-like particles of VP1, arginine tail present; donated by G. Hansman
Kind of assay: STD NMR titration, single saturation time […] s. Type of assay: binding.

Assay [2] deals with T2, GII.17 Kawasaki308 P dimers (Norovirus Hu/GII/JP/2015/GII.P17_GII.17/Kawasaki308, UniProt A0A0E4B1P1).
T2 construct: gene VP1; MIL(ProS)V(ProS)A methyl-labelled
Kind of assay: methyl TROSY CSP titration. In kind it is binding. The text has this:
methyl TROSY CSP titration on GII.17 Kawasaki308 P dimers

Assay [3] concerns the target T3, GII.4 Saga P dimers (Norovirus Hu/GII-4/Saga4/2006/JP, UniProt B5BTR7).
T3 construct: isotope-labelled, non-deamidated
In words: 1H, […] TROSY HSQC CSP titration. Type of assay: binding.

Another assay addresses T4, GII.7 RKI VLPs (Norovirus Hu/GII.7/VLP 05G954/2005/DE, UniProt S5GGK6).
T4 construct: virus-like particles of VP1, arginine tail present; gift of S. Taube
Kind of assay: STD NMR titration, single saturation time […] s. Type of assay: binding.

In assay [4] the target is T1, GII.4 Saga VLPs. In words: biochemical. Further details: STD NMR titration of norovirus VLPs with cholic acid; apparent KD from initial STD growth rates. As to the method: Samples containing VLPs were prepared at 0.41 to 1 mg mL^−1 VP1 concentration (6.9 to 17.7 μM binding sites) in PBS pH 7.3, 100 μM [D6]DSS, 0.02 % NaN3 and 10 % D2O. […] Bile acid stock solution were prepared as described above for backbone chemical shift perturbation experiments. For N373D Saga P dimers, one sample containing 45 μM P dimers, 100 μM [D6]DSS in 20 mM fully deuterated sodium phosphate buffer (pH 7.45) was prepared and titrated with CA up to a final concentration of 12 mM. with STD‐AFmax being the maximum STD‐AF for a given proton, k sat the saturation rate constant, and t sat the saturation time. Initial slopes STD‐AF0 were obtained from STD‐AF0=STD‐AFmax k sat, and were plotted as a function of the ligand concentration. Fitting Equation (1) to the resulting binding isotherms delivered dissociation constants K D. For curve fitting Origin2016G (OriginLab) was used. To compare P dimers to viral capsids, we also obtained STD NMR titration curves for CA binding to GII.4 Saga VLPs (Figure 3 D; Table 1, No. 5 and 6). In one set of experiments we performed titrations at single saturation times of 2 s15 (cf. Figure S5 and Table S1). Another titration experiment made use of initial STD growth rates16 determined from STD build up curves (Figure S6 and Table S2). The initial growth rates were also used to derive a binding epitope for CA (Figures 2 and S3). […]

For another assay, the target named is T5, GI.1 Norwalk VLPs (Norovirus GI, UniProt A0A1S5QJB8).
T5 construct: virus-like particles of VP1, arginine tail present; donated by G. Hansman
In words: STD NMR titration, single saturation time […] s. Type of assay: binding. The settings on record: read-out: K D app; pH 7.3, 277 K, 10 % D2O; apparent, ligand aggregation.

The target of a further assay is T6, GII.17 Kawasaki308 VLPs (Norovirus Hu/GII/JP/2015/GII.P17_GII.17/Kawasaki308, UniProt A0A0E4B1P1).
T6 construct: gene VP1; virus-like particles of VP1, arginine tail present; donated by G. Hansman
Kind of assay: STD NMR titration, single saturation time […] s. Type of assay: binding.

In a further assay the target is T7, GII.4 Ast6139 VLPs (Norwalk virus, UniProt Q70ET2).
T7 construct: virus-like particles of VP1, arginine tail present; donated by F. Parra
Kind of assay: STD NMR titration, single saturation time […] s. In kind it is binding.

Another assay has as its target T8, GII.17 Saitama/T87 VLPs (Norovirus GII/Hu/JP/2002/GII.P16_GII.17/Saitama/T87, UniProt A0A076JB57).
T8 construct: gene VP1; virus-like particles of VP1, arginine tail present; donated by G. Hansman
In words: biochemical. Further details: STD NMR titration of norovirus VLPs with cholic acid, single saturation time 2 s; apparent KD from STD-AF. As to the method: Samples containing VLPs were prepared at 0.41 to 1 mg mL^−1 VP1 concentration (6.9 to 17.7 μM binding sites) in PBS pH 7.3, 100 μM [D6]DSS, 0.02 % NaN3 and 10 % D2O. […] Bile acid stock solution were prepared as described above for backbone chemical shift perturbation experiments. For N373D Saga P dimers, one sample containing 45 μM P dimers, 100 μM [D6]DSS in 20 mM fully deuterated sodium phosphate buffer (pH 7.45) was prepared and titrated with CA up to a final concentration of 12 mM. […] In one set of experiments we performed titrations at single saturation times of 2 s15 (cf. Figure S5 and Table S1). Another titration experiment made use of initial STD growth rates16 determined from STD build up curves (Figure S6 and Table S2). The initial growth rates were also used to derive a binding epitope for CA (Figures 2 and S3). The apparent K D values obtained are similar, with the value resulting from initial growth rates being slightly smaller, as expected.

In the next assay the target is T9, GII.10 Vietnam026 VLPs (Norwalk virus, UniProt Q5F4T5).
T9 construct: virus-like particles of VP1, arginine tail present; donated by G. Hansman
In words: STD NMR titration, single saturation time […] s. In kind it is binding.

Another assay addresses T10, GII.4 MI001 P dimers (Norovirus Hu/GII.4/MI001/2011/USA, UniProt S5FWF8).
T10 construct: [U-2H,15N]-labelled
Kind of assay: 1H, […] TROSY HSQC CSP titration. Type of assay: binding.

Assay [5] has as its target T3, GII.4 Saga P dimers. Kind of assay: 1H, […] TROSY HSQC CSP. In kind it is binding. The settings on record: 2 mM ligand, pH 7.3, 298 K; same site as CA.
For assay [6], the target named is T1, GII.4 Saga VLPs. Kind of assay: STD NMR. In kind it is binding. The settings on record: pH 7.3, 277 K.

In the case of `C[C@H](CCC(=O)O)[C@H]1CC[C@H]2[C@@H]3[C@H](O)C[C@@H]4C[C@H](O)CC[C@]4(C)[C@H]3C[C@H](O)[C@]12C` [CA, cholic acid], the Kd on GII.4 Saga VLPs [1] worked out at 4.7 ± 0.4 mM; in [2] it was 20.1 ± 2.9 mM; at GII.4 Saga P dimers [3], 10 ± 0.6 mM; on GII.7 RKI VLPs it was 10.9 ± 4.3 mM; on GII.4 Saga VLPs [4], 3.6 ± 0.7 mM; at GI.1 Norwalk VLPs, 12.2 ± 1.8 mM. In addition, the Kd at GII.17 Kawasaki308 VLPs was found to be 31.5 ± 2.8 mM; at GII.4 Ast6139 VLPs it was 26.5 ± 8 mM; on GII.17 Saitama/T87 VLPs it was 6.6 ± 0.4 mM; at GII.10 Vietnam026 VLPs, 12.9 ± 2.9 mM; on GII.4 MI001 P dimers, 11.1 ± 0.9 mM.

With `C[C@H](CCC(=O)O)[C@H]1CC[C@H]2[C@@H]3[C@H](O)C[C@@H]4C[C@H](O)CC[C@]4(C)[C@H]3CC[C@]12C` [CDCA, chenodeoxycholic acid], at GII.4 Saga P dimers [5], the “1H,15N TROSY HSQC CSP” value was “Binding of DCA, GCDCA, and CDCA yields very similar CSPs reflecting binding to the same site”.

As to `C[C@H](CCC(=O)O)[C@H]1CC[C@H]2[C@@H]3CC[C@@H]4C[C@H](O)CC[C@]4(C)[C@H]3C[C@H](O)[C@]12C` [DCA, deoxycholic acid], on GII.4 Saga P dimers [5], the “1H,15N TROSY HSQC CSP” value is “Binding of DCA, GCDCA, and CDCA yields very similar CSPs reflecting binding to the same site”.

On to `C[C@H](CCC(=O)NCC(=O)O)[C@H]1CC[C@H]2[C@@H]3[C@H](O)C[C@@H]4C[C@H](O)CC[C@]4(C)[C@H]3C[C@H](O)[C@]12C` [GCA, sodium glycocholate hydrate], for which, at GII.4 Saga VLPs [6] (1 mM ligand in presence of TCDCA (1 mM)), the “STD NMR” value was “In each case STD NMR spectra indicate binding of bile acids to VLPs”.

Regarding `C[C@H](CCC(=O)NCC(=O)O)[C@H]1CC[C@H]2[C@@H]3[C@H](O)C[C@@H]4C[C@H](O)CC[C@]4(C)[C@H]3CC[C@]12C` [GCDCA, glycochenodeoxycholic acid], the Kd at GII.4 Saga P dimers [3] amounted to 1.5 ± 0.3 mM.

For the compound `CC1(C)[C@@H](O[C@H]2O[C@H](C(=O)O)[C@@H](O)[C@H](O)[C@H]2O[C@@H]2O[C@H](C(=O)O)[C@@H](O)[C@H](O)[C@H]2O)CC[C@]2(C)[C@H]3C(=O)C=C4[C@@H]5C[C@@](C)(C(=O)O)CC[C@]5(C)CC[C@@]4(C)[C@]3(C)CC[C@@H]12` [GR, glycyrrhizic acid], the Kd at GII.4 Saga P dimers [3] was determined as 13.8 ± 0.4 mM.

As to `C[C@H](CCC(=O)NCCS(=O)(=O)O)[C@H]1CC[C@H]2[C@@H]3[C@H](O)C[C@@H]4C[C@H](O)CC[C@]4(C)[C@H]3CC[C@]12C` [TCDCA, sodium taurochenodeoxycholate], at GII.4 Saga VLPs [6] (1 mM ligand in presence of GCA (1 mM)), the “STD NMR” value is “In each case STD NMR spectra indicate binding of bile acids to VLPs”.
